*1 amine or outer side, *2 acyl side, *3 side chain or, on linkers, in order; H or OH if unused. Where a SMILES comes first, the peptide text is derived from it. Bridges are numbered along the chain shown (N, C = ends). [ ]: non-standard residue; d: D form. dPhe(4-Et) = CCc1ccc(C[C@@H](N)C(=O)O)cc1; dPhe(4-Me) = Cc1ccc(C[C@@H](N)C(=O)O)cc1; hCys = N[C@@H](CCS)C(=O)O; X1 = O=C(CC[*:2])[*:1]
How the values were obtained:
isolated rat uterus = target: T1, isolated rat uterus (Rattus norvegicus, UniProt P70536); assay: pA2 values as tested with an isolated rat uterus (oxytocin as agonist); type: cell-based; conditions: negative decadic logarithm of an inhibitory constant
T1 construct: isolated rat uterus; from tissue; host or cells: isolated rat uterus
T1 sequence (P70536 1-388): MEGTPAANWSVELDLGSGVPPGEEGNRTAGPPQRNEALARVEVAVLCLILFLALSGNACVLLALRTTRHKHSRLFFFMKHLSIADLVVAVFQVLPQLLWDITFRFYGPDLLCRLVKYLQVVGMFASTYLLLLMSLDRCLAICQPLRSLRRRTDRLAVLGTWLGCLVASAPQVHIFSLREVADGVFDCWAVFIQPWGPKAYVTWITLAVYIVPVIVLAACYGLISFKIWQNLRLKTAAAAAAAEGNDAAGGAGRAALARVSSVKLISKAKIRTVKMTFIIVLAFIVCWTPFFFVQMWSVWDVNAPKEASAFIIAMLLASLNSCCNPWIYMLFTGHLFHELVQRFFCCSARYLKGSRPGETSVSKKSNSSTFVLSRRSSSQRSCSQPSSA
Excerpt: Each of the above-identified analogs evidenced strong inhibitory effects. Table I, set forth below, set forth numerical values of the biological activity of these analogs wherein pA2 represents the negative decadic logarithm of an inhibitory constant in accordance with the equation [formula] wherein B is the concentration of the inhibitor in moles per liter, A50 is the concentration of an agonistic compound (oxytocin) which results in 50% of the maximum effect, and A50B is the concentration of an agonistic compound yielding 50% of the maximum effect in the presence of an inhibitor of concentration B (Eggena P., Schwartz I. L., and Walter R.: J. Gen. Physiol. 52, 465 (1968).
pA2 values as tested with an isolated rat uterus

[1] = target: T2, biological effect of vasopressin (blood pressure) (Rattus norvegicus, UniProt P30560); assay: suppression of the biological effect of vasopressin, i.e. of blood pressure in a despinalized rat; conditions: in vivo, blood volume 6.7 ml/100g of rat weight assumed
T2 construct: blood pressure in a despinalized rat; from tissue; host or cells: despinalized rat in vivo (vasculature)
Protocol: ^(a) the negative decadic logarithm of the analog concentration which
leads to suppression of the biological effect of vasopressin (i.e. of
blood pressure in a despinalized rat) to 50% of the original response; th
blood volume of rat (6.7 ml/100g of rat weight) is assumed in the in vivo
test (Nestor J. J., Ferger M. F., du Vigneaud V.: J. Med. Chem. 18, 284

[2] = system: uterotonic activity of oxytocin; assay: inhibitory effect toward the uterotonic activity of oxytocin in the in vivo test with a uterus; conditions: compared with the equipotential dose of [2D-p-ethylphenylalanine] oxytocin
Excerpt: uterotonic activity of oxytocin in the in vivo test with a uterus as
compared with the equipotential dose of the compound ([
2D-p-ethylphenylalanine] oxytocin).

[3] = system: uterotonic and pressor activity of natural hormones; assay: inhibitory effects of the analogs toward natural hormones (general statements); conditions: in words

T2 sequence (P30560 whole entry): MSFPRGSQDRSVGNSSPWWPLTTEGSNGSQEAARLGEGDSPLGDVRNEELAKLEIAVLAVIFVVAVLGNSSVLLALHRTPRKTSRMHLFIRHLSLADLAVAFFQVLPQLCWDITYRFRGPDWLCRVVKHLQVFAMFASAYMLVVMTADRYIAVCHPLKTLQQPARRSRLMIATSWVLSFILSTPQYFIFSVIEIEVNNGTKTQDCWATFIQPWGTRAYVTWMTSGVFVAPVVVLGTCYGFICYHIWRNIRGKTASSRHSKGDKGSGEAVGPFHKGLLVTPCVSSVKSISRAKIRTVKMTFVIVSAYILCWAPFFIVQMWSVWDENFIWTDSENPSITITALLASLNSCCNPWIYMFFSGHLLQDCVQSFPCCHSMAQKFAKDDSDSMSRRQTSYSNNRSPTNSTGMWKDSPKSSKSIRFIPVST

SMILES	Kb (isolated rat uterus)	other results
CC[C@H](C)[C@@H]1NC(=O)[C@@H](Cc2ccccc2)NC(=O)CCSCC[C@@H](C(=O)N2CCC[C@H]2C(=O)N[C@@H](CC(C)C)C(=O)NCC(N)=O)NC(=O)[C@H](CC(N)=O)NC(=O)[C@H](CCC(N)=O)NC1=O [Ia, [2-D-Phenylalanine]deamino-6-carba-oxytocin] (HELM PEPTIDE1{[dF].I.Q.N.[O=C([C@H](CCS[*:3])N[*:1])[*:2]].P.L.G.[am]}|CHEM1{[O=C(CC[*:2])[*:1]]}$PEPTIDE1,CHEM1,1:R1-1:R1|PEPTIDE1,CHEM1,5:R3-1:R2$$$V2.0)	5.5 nM	
CCOc1ccc(C[C@H]2NC(=O)CCSCC[C@@H](C(=O)N3CCC[C@H]3C(=O)N[C@@H](CC(C)C)C(=O)NCC(N)=O)NC(=O)[C@H](CC(N)=O)NC(=O)[C@H](CCC(N)=O)NC(=O)[C@H]([C@@H](C)CC)NC2=O)cc1 [Ib, [2-D-o-Ethyltyrosine]deamino-6-carba-oxytocin] ([dY](Et)IQN[hCys]PLG-NH2; linker N-5 via X1)	28.8 nM	
CC[C@H](C)[C@@H]1NC(=O)[C@@H](Cc2ccc(C)cc2)NC(=O)CCSCC[C@@H](C(=O)N2CCC[C@H]2C(=O)N[C@@H](CC(C)C)C(=O)NCC(N)=O)NC(=O)[C@H](CC(N)=O)NC(=O)[C@H](CCC(N)=O)NC1=O [Ic, [2-D-p-Methylphenylalanine]deamino-6-carba-oxytocin] ([dPhe(4-Me)]IQN[hCys]PLG-NH2; linker N-5 via X1)	1.86 nM	
CCc1ccc(C[C@H]2NC(=O)CCSCC[C@@H](C(=O)N3CCC[C@H]3C(=O)N[C@@H](CC(C)C)C(=O)NCC(N)=O)NC(=O)[C@H](CC(N)=O)NC(=O)[C@H](CCC(N)=O)NC(=O)[C@H]([C@@H](C)CC)NC2=O)cc1 [Id, [2-D-p-Ethylphenylalanine]deamino-6-carba-oxytocin] ([dPhe(4-Et)]IQN[hCys]PLG-NH2; linker N-5 via X1)	1.86 nM	
CCc1ccc(C[C@H]2NC(=O)CCSSC[C@@H](C(=O)N3CCC[C@H]3C(=O)N[C@@H](CC(C)C)C(=O)NCC(N)=O)NC(=O)[C@H](CC(N)=O)NC(=O)[C@H](CCC(N)=O)NC(=O)[C@H]([C@@H](C)CC)NC2=O)cc1 [Ie, [2-D-p-Ethylphenylalanine]deamino-oxytocin] (HELM PEPTIDE1{[O=C(CCS[*:3])[*:2]].[CCc1ccc(C[C@@H](N[*:1])C(=O)[*:2])cc1].I.Q.N.C.P.L.G.[am]}$PEPTIDE1,PEPTIDE1,1:R3-6:R3$$$V2.0)		pA2 (isolated rat uterus): 8.06
CCc1ccc(C[C@H]2NC(=O)[C@@H](N)CSSC[C@@H](C(=O)N3CCC[C@H]3C(=O)N[C@@H](CC(C)C)C(=O)NCC(N)=O)NC(=O)[C@H](CC(N)=O)NC(=O)[C@H](CCC(N)=O)NC(=O)[C@H]([C@@H](C)CC)NC2=O)cc1 [If, [2-D-p-Ethylphenylalanine]oxytocin] (HELM PEPTIDE1{C.[CCc1ccc(C[C@@H](N[*:1])C(=O)[*:2])cc1].I.Q.N.C.P.L.G.[am]}$PEPTIDE1,PEPTIDE1,1:R3-6:R3$$$V2.0)	7.08 nM	
CCc1ccc(C[C@H]2NC(=O)[C@@H](N)C(C)(C)SSC[C@@H](C(=O)N3CCC[C@H]3C(=O)N[C@@H](CC(C)C)C(=O)NCC(N)=O)NC(=O)[C@H](CC(N)=O)NC(=O)[C@H](CCC(N)=O)NC(=O)[C@H]([C@@H](C)CC)NC2=O)cc1 [Ig, [1-Penicilamine, 2-D-p-ethylphenylalanine]oxytocin] (HELM PEPTIDE1{[Pen].[CCc1ccc(C[C@@H](N[*:1])C(=O)[*:2])cc1].I.Q.N.C.P.L.G.[am]}$PEPTIDE1,PEPTIDE1,1:R3-6:R3$$$V2.0)	8.13 nM	
CCc1ccc(C[C@H]2NC(=O)[C@@H](N)CSSC[C@@H](C(=O)N3CCC[C@H]3C(=O)N[C@@H](CCCCN)C(=O)NCC(N)=O)NC(=O)[C@H](CC(N)=O)NC(=O)[C@H](CCC(N)=O)NC(=O)[C@H](Cc3ccccc3)NC2=O)cc1 [Ih, [2-D-p-Ethylphenylalanine, 8-lysine]vasopressin] (HELM PEPTIDE1{C.[CCc1ccc(C[C@@H](N[*:1])C(=O)[*:2])cc1].F.Q.N.C.P.K.G.[am]}$PEPTIDE1,PEPTIDE1,1:R3-6:R3$$$V2.0)		pA2 (negative decadic logarithm of the analog concentration which leads to suppression of the biological effect of vasopressin to 50% of the original response) [1]: 7.05
CCc1ccc(C[C@H]2NC(=O)[C@@H](NC(=O)CNC(=O)CNC(=O)CN)CSSC[C@@H](C(=O)N3CCC[C@H]3C(=O)N[C@@H](CC(C)C)C(=O)NCC(N)=O)NC(=O)[C@H](CC(N)=O)NC(=O)[C@H](CCC(N)=O)NC(=O)[C@H]([C@@H](C)CC)NC2=O)cc1 [Ii, N^δ -Glycyl-glycyl-glycyl[2-D-p-ethylphenylalanine]oxytocin] (HELM PEPTIDE1{G.G.G.C.[CCc1ccc(C[C@@H](N[*:1])C(=O)[*:2])cc1].I.Q.N.C.P.L.G.[am]}$PEPTIDE1,PEPTIDE1,4:R3-9:R3$$$V2.0)	724 nM	inhibitory effect toward the uterotonic activity of oxytocin, duration [2]: prolonged inhibitory effect
CC[C@H](C)[C@@H]1NC(=O)[C@@H](Cc2ccc(C)cc2)NC(=O)CCSCC[C@@H](C(=O)N2CCC[C@H]2C(=O)N[C@@H](CC(C)C)C(=O)O)NC(=O)[C@H](CC(N)=O)NC(=O)[C@H](CCC(N)=O)NC1=O [Ij, [2-D-p-methylphenylalanine, 9-desglycinamide]deamino-6-carbaoxytocin] ([dPhe(4-Me)]IQN[hCys]PL-OH; linker N-5 via X1)	1.58 nM	inhibitory effect [3]: retained

— patent US4483794A, “Analogs of neurohypophysial hormones” (Ceskoslovenska akademie ved, priority 1983, dated 1984)
